Assay results taken from article PMC3593249 (Biochemical pharmacology, 2013).
Values joined by “and” are separate entries in the source; they are usually repeats but may differ in a detail not shown here. Equal values may be shown once.

How the values were obtained:
α7 nAChR = settings: cited from earlier work
α7 nAChR S36V mutant [1] = target: T1, α7 nAChR S36V mutant (Homo sapiens, UniProt P36544, S58V); test: Residual desensitization; assay type: cell-based; settings: read-out: IC50 (RD curve), potency for producing long-lasting desensitization, 12 s applications
α7 nAChR S36I mutant [2] = target: T2, α7 nAChR S36I mutant (Homo sapiens, UniProt P36544, S58I); test: Concentration-response curves; assay type: cell-based; settings: for Imax: maximal response relative to the maximal response from ACh (ACh = 1); for EC50: net charge CRC, parenthetical = curve-fit error
α7 nAChR S36G mutant [3] = target: T3, α7 nAChR S36G mutant (Homo sapiens, UniProt P36544, S58G); test: Residual desensitization; assay type: cell-based; settings: read-out: IC50 (RD curve), potency for producing long-lasting desensitization, 12 s applications
α7 nAChR S36T mutant [4] = target: T4, α7 nAChR S36T mutant (Homo sapiens, UniProt P36544, S58T); test: Residual desensitization; assay type: cell-based; settings: read-out: IC50 (RD curve), potency for producing long-lasting desensitization, 12 s applications
α7 nAChR S36A mutant [5] = target: T5, α7 nAChR S36A mutant (Homo sapiens, UniProt P36544, S58A); test: Concentration-response curves; assay type: cell-based; settings: for Imax: maximal response relative to the maximal response from ACh (ACh = 1); for EC50: net charge CRC, parenthetical = curve-fit error
α7 nAChR S36A mutant [6] = target: T5, α7 nAChR S36A mutant; test: Residual desensitization; assay type: cell-based; settings: read-out: IC50 (RD curve), potency for producing long-lasting desensitization, 12 s applications
α7 nAChR S36V mutant [7] = target: T1, α7 nAChR S36V mutant; test: Concentration-response curves; assay type: cell-based; settings: for Imax: maximal response relative to the maximal response from ACh (ACh = 1); for EC50: net charge CRC, parenthetical = curve-fit error
WT α7 nAChR [8] = target: T6, WT α7 nAChR (Homo sapiens, UniProt P36544); test: Concentration-response curves; assay type: cell-based; settings: for Imax: maximal response relative to the maximal response from ACh (ACh = 1); for EC50: net charge CRC, potency for agonism, parenthetical = curve-fit error
α7 nAChR S36I mutant [9] = target: T2, α7 nAChR S36I mutant; test: Residual desensitization; assay type: cell-based; settings: read-out: IC50 (RD curve), potency for producing long-lasting desensitization, 12 s applications
WT α7 nAChR [10] = target: T6, WT α7 nAChR; test: Residual desensitization; assay type: cell-based; settings: for IC50: read-out: IC50 (RD curve), potency for producing long-lasting desensitization, 12 s applications
WT α7 nAChR [11] = target: T6, WT α7 nAChR; test: Induction of Ds: 30 µM PNU-120596 applied after 5-minute drug bath; assay type: cell-based; settings: for desensitized state after high-concentration incubation (PNU-120596 response): high concentration: BA 300 µM, 4MeBA 100 µM
α7 nAChR S36C mutant [12] = target: T7, α7 nAChR S36C mutant (Homo sapiens, UniProt P36544, S58C); test: Residual desensitization; assay type: cell-based; settings: read-out: IC50 (RD curve), potency for producing long-lasting desensitization, 12 s applications
α7 nAChR S36T mutant [13] = target: T4, α7 nAChR S36T mutant; test: Concentration-response curves; assay type: cell-based; settings: for Imax: maximal response relative to the maximal response from ACh (ACh = 1); for EC50: net charge CRC, parenthetical = curve-fit error
α7 nAChR S36C mutant [14] = target: T7, α7 nAChR S36C mutant; test: Concentration-response curves; assay type: cell-based; settings: for Imax: maximal response relative to the maximal response from ACh (ACh = 1); for EC50: net charge CRC, parenthetical = curve-fit error
α7 nAChR S36G mutant [15] = target: T3, α7 nAChR S36G mutant; assay type: cell-based; settings: for Imax: maximal response relative to the maximal response from ACh (ACh = 1); for EC50: net charge CRC, parenthetical = curve-fit error
α7 nAChR S36G mutant [16] = target: T3, α7 nAChR S36G mutant; test: 5-minute bath incubation, 1 mM ACh probe and post-control ACh applications; assay type: cell-based; settings: 30 µM drug bath, 5 minutes, then 1 mM ACh probe
WT α7 nAChR [17] = target: T6, WT α7 nAChR; test: as above; assay type: cell-based

T3 sequence (P36544 23-502 S58G): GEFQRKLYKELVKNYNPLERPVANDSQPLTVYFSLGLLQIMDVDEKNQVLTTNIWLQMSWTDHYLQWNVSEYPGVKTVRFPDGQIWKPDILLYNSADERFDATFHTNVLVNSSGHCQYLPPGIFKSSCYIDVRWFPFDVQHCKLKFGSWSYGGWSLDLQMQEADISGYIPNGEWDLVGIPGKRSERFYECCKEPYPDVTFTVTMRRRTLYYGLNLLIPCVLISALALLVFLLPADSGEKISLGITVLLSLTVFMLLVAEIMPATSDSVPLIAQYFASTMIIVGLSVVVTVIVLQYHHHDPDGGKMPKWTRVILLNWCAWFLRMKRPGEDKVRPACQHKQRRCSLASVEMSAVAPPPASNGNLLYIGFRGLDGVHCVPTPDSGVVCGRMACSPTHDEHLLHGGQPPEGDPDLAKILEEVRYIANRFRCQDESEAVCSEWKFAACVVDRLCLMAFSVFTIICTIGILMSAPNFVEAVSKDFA
T4 sequence (P36544 23-502 S58T): as the sequence (P36544 23-502 S58G) above, with G36T counted along it
T6 sequence (P36544 23-502): as the sequence (P36544 23-502 S58G) above, with G36S counted along it
T2 sequence (P36544 23-502 S58I): as the sequence (P36544 23-502 S58G) above, with G36I counted along it
T1 sequence (P36544 23-502 S58V): as the sequence (P36544 23-502 S58G) above, with G36V counted along it
T5 sequence (P36544 23-502 S58A): as the sequence (P36544 23-502 S58G) above, with G36A counted along it
T7 sequence (P36544 23-502 S58C): as the sequence (P36544 23-502 S58G) above, with G36C counted along it

SMILES	IC50 (α7 nAChR S36V mutant [1])	Imax (α7 nAChR S36I mutant [2])	EC50 (α7 nAChR S36I mutant [2])	IC50 (α7 nAChR S36G mutant [3])	IC50 (α7 nAChR S36T mutant [4])	Imax (α7 nAChR S36A mutant [5])	EC50 (α7 nAChR S36A mutant [5])	IC50 (α7 nAChR S36A mutant [6])	Imax (α7 nAChR S36V mutant [7])	EC50 (α7 nAChR S36V mutant [7])	Imax (WT α7 nAChR [8])	EC50 (WT α7 nAChR [8])	IC50 (α7 nAChR S36I mutant [9])	IC50 (WT α7 nAChR [10])	IC50 (α7 nAChR S36C mutant [12])	Imax (α7 nAChR S36T mutant [13])	EC50 (α7 nAChR S36T mutant [13])	Imax (α7 nAChR S36C mutant [14])	EC50 (α7 nAChR S36C mutant [14])	Imax (α7 nAChR S36G mutant [15])	further results
Oc1ccc(C=C2CCCN=C2c2cccnc2)c(O)c1 [2,4diOHBA, 3-(2,4-dihydroxybenzylidene)anabaseine]	–	–	–	–	–	–	–	–	–	–	–	–	–	–	–	–	–	–	–	–	RD production (α7 nAChR): practically none
Cc1ccc(C=C2CCCN=C2c2cccnc2)cc1 [4MeBA, 3-(4-methylbenzylidene)anabaseine]	91 µM	0.088(0.007)	17.6 µM	51 µM	450 µM	0.19(0.04)	7.9 µM	145 µM	0.15(0.04)	3.5 µM	0.14(0.01)	30 µM and 29 µM	153 µM	110 µM	52 µM	0.19(0.02)	34 µM	0.14(0.02)	5.5 µM	0.31(0.02)	reduction of post-control ACh responses (WT α7 nAChR [10]; at concentration of greatest evoked response, approximately 300 µM): 80%; desensitized state after high-concentration incubation (PNU-120596 response) (WT α7 nAChR [11]): induced exclusively into Di; EC50 (α7 nAChR S36G mutant [15]): 9.5 µM
Oc1ccc(/C=C2\CCCN=C2c2cccnc2)cc1 [4OHBA, (E)-3-(4-hydroxybenzylidene)anabaseine]	61 µM	0.46(0.03)	2.3 µM	134 µM	> 300 µM	0.73(0.03)	0.57 µM	203 µM	0.50(0.03)	0.25 µM	0.385(0.006)	6 µM and 5.5 µM	> 300 µM	> 300 µM	233 µM	0.50(0.01)	5.9 µM	0.63(0.02)	0.75 µM	0.89(0.06)	reduction of post-control ACh responses (WT α7 nAChR [10]; at concentrations required for maximal evoked responses, 30 µM – 300 µM): 10–20%; IC50 (RD curve) (WT α7 nAChR [10]; potency for producing long-lasting desensitization, 12 s applications): far greater than the concentration range studied; induction of Ds (response to PNU-120596 after drug bath) (WT α7 nAChR [11]; 30 µM drug bath, 5 minutes, 30 µM PNU-120596): relatively little Ds; EC50 (α7 nAChR S36G mutant [15]): 0.53 µM; ACh control responses after 5-minute incubation (α7 nAChR S36G mutant [16]): nearly complete suppression of the ACh control responses; recovery during post-control ACh applications after 5-minute incubation (WT α7 nAChR [17]; 30 µM drug bath, 5 minutes): fully recovered; post-control ACh responses, low versus high concentration incubation (WT α7 nAChR [17]; 4OHBA low 3 µM, high 30 µM): no significant difference
C(=C1CCCN=C1c1cccnc1)c1ccccc1 [BA, benzylidene anabaseine]	217 µM	0.18(0.02)	81 µM	357 µM	720 µM	0.45(0.02)	27 µM	91 µM	0.27(0.05)	27 µM	0.31(0.01)	40 µM and 39 µM	> 300 µM	270 µM	189 µM	0.19(0.01)	68 µM	0.30(0.01)	22 µM	0.316(0.003)	desensitized state after high-concentration incubation (PNU-120596 response) (WT α7 nAChR [11]): induced exclusively into Di; EC50 (α7 nAChR S36G mutant [15]): 44 µM
COc1ccc(/C=C2\CCCN=C2c2cccnc2)c(OC)c1 [GTS-21, 3-(2,4-dimethoxybenzylidene)anabaseine]	–	–	–	–	–	–	–	–	–	–	–	–	–	–	–	–	–	–	–	–	RD production (α7 nAChR): significant amounts of RD
